Converted amounts (≈) assume the structure as drawn. Counter-ions that a name gives are not always drawn.
What was measured:
[1] = Solubility of Atrasentan Hydrochloride Crystalline Forms in 1,4-dioxane; assay type: physicochemical; conditions: 1,4-dioxane at 25° C. (n=3)
Protocol: The solubility (in mg/mL) of Atrasentan Hydrochloride Crystalline Forms 1, 2 and 3 in 1,4-dioxane at 25° C.

[2] = Conversion of crystalline forms of atrasentan hydrochloride to Form 2 in representative solvents at 25° C.; assay type: physicochemical; set-up: key: 1, 2 and 3 mean Atrasentan Hydrochloride Crystalline Forms 1, 2 and 3, respectively.; 1, 2 and 3 mean Atrasentan Hydrochloride Crystalline Forms 1, 2 and 3, respectively.; 1, 2 and 3 mean Atrasentan Hydrochloride Crystalline Forms 1, 2 and 3, respectively
Protocol: Examples of representative solvents that are useful for converting a particular crystalline form of atrasentan hydrochloride to Atrasentan Hydrochloride Crystalline Form 2 having substantial crystalline purity at 25° C. are shown in TABLE 2.

In the case of `CCCCN(CCCC)C(=O)CN1C[C@H](c2ccc3c(c2)OCO3)[C@@H](C(=O)O)[C@@H]1c1ccc(OC)cc1` [Form 3, (2R,3R,4S)-(+)-2-(4-methoxyphenyl)-4-(1,3-benzodioxol-5-yl)-1-(N,N-di(n-butyl)aminocarbonylmethyl)pyrrolidine-3-carboxylic acid], the solubility [1] is reported as 16.53 ± 0.22 mg/mL (≈ 32.4 mM).
Compound `CCCCN(CCCC)C(=O)CN1C[C@H](c2ccc3c(c2)OCO3)[C@@H](C(=O)O)[C@@H]1c1ccc(OC)cc1` [atrasentan hydrochloride, (2R,3R,4S)-(+)-2-(4-methoxyphenyl)-4-(1,3-benzodioxol-5-yl)-1-(N,N-di(n-butyl)aminocarbonylmethyl)pyrrolidine-3-carboxylic acid] has a crystalline form present ([2]; 0.1M HCl, week 1, 25° C.) of 1, a crystalline form present ([2]; 0.1M HCl, week 2, 25° C.) of 1 and a crystalline form present ([2]; 0.1M HCl, week 4, 25° C.) of 1. For the same compound, the crystalline form present ([2]; 0.1M HCl, week 9, 25° C.) was 2, the crystalline form present ([2]; 0.1M HCl, week 16, 25° C.) was 2 and the crystalline form present ([2]; IPA (isopropyl alcohol), week 1, 25° C.) was 1. The crystalline form present ([2]; IPA (isopropyl alcohol), week 2, 25° C.) was 1, the crystalline form present ([2]; IPA (isopropyl alcohol), week 4, 25° C.) was 2 and the crystalline form present ([2]; IPA (isopropyl alcohol), week 9, 25° C.) was 2. For the same compound, the crystalline form present ([2]; IPA (isopropyl alcohol), week 16, 25° C.) was 2, the crystalline form present ([2]; PEG 400 (polyethylene glycol), week 1, 25° C.) was 1 and the crystalline form present ([2]; PEG 400 (polyethylene glycol), week 2, 25° C.) was 1. It also gave a crystalline form present ([2]; PEG 400 (polyethylene glycol), week 4, 25° C.) of 1, a crystalline form present ([2]; PEG 400 (polyethylene glycol), week 9, 25° C.) of 1 and a crystalline form present ([2]; PEG 400 (polyethylene glycol), week 16, 25° C.) of 2. It also gave a crystalline form present ([2]; acetone, week 1, 25° C.) of 2, a crystalline form present ([2]; acetone, week 2, 25° C.) of 2 and a crystalline form present ([2]; acetone, week 4, 25° C.) of 2. For the same compound, the crystalline form present ([2]; acetone, week 9, 25° C.) was 2, the crystalline form present ([2]; acetone, week 16, 25° C.) was 2 and the crystalline form present ([2]; ethanol, week 1, 25° C.) was 2. For the same compound, the crystalline form present ([2]; ethanol, week 2, 25° C.) was 2, the crystalline form present ([2]; ethanol, week 4, 25° C.) was 2 and the crystalline form present ([2]; ethanol, week 9, 25° C.) was 2. It also gave a crystalline form present ([2]; ethanol, week 16, 25° C.) of 2, a crystalline form present ([2]; ethyl acetate, week 1, 25° C.) of 1 and a crystalline form present ([2]; ethyl acetate, week 2, 25° C.) of 1. The crystalline form present ([2]; ethyl acetate, week 4, 25° C.) was 1, the crystalline form present ([2]; ethyl acetate, week 9, 25° C.) was 2 and the crystalline form present ([2]; ethyl acetate, week 16, 25° C.) was 2. It also gave a crystalline form present ([2]; nitromethane, week 1, 25° C.) of 3, a crystalline form present ([2]; nitromethane, week 2, 25° C.) of 3 and a crystalline form present ([2]; nitromethane, week 4, 25° C.) of 3. It also gave a crystalline form present ([2]; nitromethane, week 9, 25° C.) of 3 and a crystalline form present ([2]; nitromethane, week 16, 25° C.) of 2.

Reference: patent US20060063825A1, “Crystalline form of a drug” (priority 2004, published 2006)
